Usually Ki stands for the dissociation constant of the complex between target and ligand, obtained from inhibition or displacement.

Here are results for 44 compounds from US9416129B2, “Tricyclic substituted thiadiazine dioxide compounds as BACE inhibitors, compositions and their use” (Merck Sharp & Dohme Corp., priority 2012, dated 2016).

Molecules are shown by their SMILES.

The target in assay [1] is soluble human BACE1 catalytic domain (Homo sapiens (Human), UniProt P56817). Nature of the assay: BACE1 HTRF FRET assay. It counts as biochemical. The following applies: Ki calculated from IC50 using the Cheng-Prusoff equation. The source says: Na^+-Acetate pH 5.0; 1% Brij-35; Glycerol; Dimethyl Sulfoxide (DMSO); Recombinant human soluble BACE1 catalytic domain (>95% pure); APP Swedish mutant peptide substrate (QSY7-APP^swe-Eu): QSY7-[…]-Europium-amide.
Sequence of soluble human BACE1 catalytic domain (P56817 75-416): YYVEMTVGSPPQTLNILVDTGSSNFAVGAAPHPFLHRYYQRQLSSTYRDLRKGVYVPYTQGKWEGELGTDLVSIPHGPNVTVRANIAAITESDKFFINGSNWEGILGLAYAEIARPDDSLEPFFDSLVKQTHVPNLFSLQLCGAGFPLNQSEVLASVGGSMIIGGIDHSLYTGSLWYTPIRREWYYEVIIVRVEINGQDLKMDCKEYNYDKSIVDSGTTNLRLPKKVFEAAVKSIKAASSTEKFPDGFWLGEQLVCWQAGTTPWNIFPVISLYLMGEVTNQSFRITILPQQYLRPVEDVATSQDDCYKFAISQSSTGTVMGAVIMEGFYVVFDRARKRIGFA
A homogeneous time-resolved FRET assay can be used to determine IC50 values for inhibitors of the soluble human BACE1 catalytic domain. This assay monitors the increase of 620 nm fluorescence that resulted from BACE1 cleavage of an APPswedish APP^swe mutant peptide FRET substrate (QSY7-[…]-Europium-amide). This substrate contains an N-terminal QSY7 moiety that serves as a quencher of the C-terminal Europium fluorophore (620 nm Em). In the absence of enzyme activity, 620 nm fluorescence is low in the assay and increased linearly over 3 hours in the presence of uninhibited BACE1 enzyme Inhibition of BACE1 cleavage of the QSY7-APP^swe-Eu substrate by inhibitors is manifested as a suppression of 620 nm fluorescence.
Varying concentrations of inhibitors at 3× the final desired concentration in a volume of 10 ul are preincubated with purified human BACE1 catalytic domain (3 nM in 10 μl) for 30 minutes at 30° C. in reaction buffer containing 20 mM Na-Acetate pH 5.0, 10% glycerol, 0.1% Brij-35 and 7.5% DSMO. Reactions are initiated by addition of 10 μl of 600 nM QSY7-APP^swe-Eu substrate (200 nM final) to give a final reaction volume of […] in a 384 well Nunc HTRF plate. The reactions are incubated at 30° C. for 1.5 hours. The 620 nm fluorescence is then read on a Rubystar HTRF plate reader (BMG Labtechnologies) using a 50 millisecond delay followed by a 400 millisecond acquisition time window. Inhibitor IC50 values are derived from non-linear regression analysis of concentration response curves.

A further assay concerns the target human autoBACE-2 (Homo sapiens (Human), UniProt Q9Y5Z0). The experiment in a line: BACE-2 assay (BACE-HTRF, time-resolved endpoint proteolysis). Type of assay: biochemical. The following applies: Ki calculated from IC50 using the Cheng-Prusoff equation; read-out: BACE2 Ki. The method, then: Inhibitor IC50s at purified human autoBACE-2 are determined in a time-resolved endpoint proteolysis assay that measures hydrolysis of the QSY7-[…]-Eu-amide FRET peptide substrate (BACE-HTRF assay). […] DMSO is present at 5% final concentration in the assay. Following laser excitation of sample wells at 320 nm, the fluorescence signal at 620 nm is collected for 400 ms following a 50 μs delay on a RUBYstar HTRF plate reader (BMG Labtechnologies). Raw RFU data is normalized to maximum (1.0 nM BACE/DMSO) and minimum (no enzyme/DMSO) RFU values. […] The Ki values are calculated from the IC50 using the Cheng-Prusoff equation.

Sequence of human autoBACE-2 (Q9Y5Z0 63-473 limits assumed): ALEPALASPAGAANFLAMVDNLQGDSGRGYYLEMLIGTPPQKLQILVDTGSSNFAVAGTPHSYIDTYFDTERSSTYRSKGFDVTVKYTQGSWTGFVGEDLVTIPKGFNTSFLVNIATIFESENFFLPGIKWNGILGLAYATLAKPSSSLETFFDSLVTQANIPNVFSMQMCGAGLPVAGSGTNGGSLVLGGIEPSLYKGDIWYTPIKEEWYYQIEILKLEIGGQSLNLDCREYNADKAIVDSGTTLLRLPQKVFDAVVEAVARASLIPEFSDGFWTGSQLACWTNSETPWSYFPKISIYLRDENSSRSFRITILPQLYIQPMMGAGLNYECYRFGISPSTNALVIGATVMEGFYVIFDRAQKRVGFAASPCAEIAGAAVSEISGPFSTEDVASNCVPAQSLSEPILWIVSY

For `CN1C(=N)N[C@](C)(c2cc(-c3cc(F)cc(-c4nnco4)c3)cs2)CS1(=O)=O` [Example 43], the Ki in assay [1] is 8.8 nM; on human autoBACE-2, 6.5 nM.
In the case of `CN1C(=N)N[C@](C)(c2cc(-c3cc(F)cc(-c4nnco4)c3)ccc2F)CS1(=O)=O` [Example 30], the inhibition constant Ki in assay [1] is 869 nM; on human autoBACE-2, 235 nM.
For the compound `CN1C(=N)N[C@](C)(c2sc3c(-c4ccc(-n5ccnn5)cc4)cccc3c2F)CS1(=O)=O` [Example 83], the figures for the Ki (in assay [1]; on human autoBACE-2) were 19 nM and 148 nM, respectively.
With `Cc1cocc1-c1ccc(-c2nccc3c(Cl)c([C@]4(C)CS(=O)(=O)N(C)C(=N)N4)sc23)c(F)c1` [Example 110], the results for the Ki (in assay [1]; on human autoBACE-2) were 112 nM and 444 nM, respectively.
Turning to `CN1C(=N)N[C@](C)(c2sc3c(-c4ccc(N5CCS(=O)(=O)CC5)cc4)cccc3c2F)CS1(=O)=O` [Example 85], the figures for the Ki (in assay [1]; at human autoBACE-2) were 6520 nM and 4690 nM, respectively.
In the case of `CN1C(=N)N[C@](C)(c2sc3c(-c4ccc(-c5ccc(F)cc5F)nc4)cccc3c2F)CS1(=O)=O` [Example 82], the Ki was 93 nM in assay [1] and 61 nM on human autoBACE-2.
`CN1C(=N)N[C@](C)(c2sc(-c3cccc(-c4nnco4)c3F)cc2F)CS1(=O)=O` [Example 36]: the results for the Ki (in assay [1]; at human autoBACE-2) were 1150 nM and 247 nM, respectively.
In the case of `CN1CCN(c2ccc(-c3cccc4c(F)c([C@]5(C)CS(=O)(=O)N(C)C(=N)N5)sc34)cc2)CC1` [Example 95], the results for the Ki (in assay [1]; on human autoBACE-2) were 9760 nM and 2030 nM, respectively.
As to `CN1C(=N)N[C@](C)(c2sc3c(-c4ccc(-c5nccn5C)cc4)cccc3c2F)CS1(=O)=O` [Example 86], the Ki in assay [1] was 5620 nM; at human autoBACE-2, 3300 nM.
As for `CN1CCN(c2ccc(-c3cccc4c(F)c([C@]5(C)CS(=O)(=O)N(C)C(=N)N5)sc34)cn2)CC1` [Example 93], the Ki in assay [1] was 3840 nM; on human autoBACE-2, 2660 nM.
For `Cc1nnc(-c2cccc(-c3cc(F)c([C@]4(C)CS(=O)(=O)N(C)C(=N)N4)s3)c2)o1` [Example 16], the Ki in assay [1] is 232 nM; at human autoBACE-2 it was 4.2 nM.
With `CN1C(=N)N[C@](C)(c2sc(-c3ccc(-c4nccs4)cc3)cc2Cl)CS1(=O)=O` [Example 70], the Ki is 827 nM in assay [1] and 174 nM on human autoBACE-2.
Regarding `CN1C(=N)N[C@](C)(c2sc(-c3ccnc(-c4cccnc4)c3)cc2F)CS1(=O)=O` [Example 74], the figures for the Ki (in assay [1]; on human autoBACE-2) were 199 nM and 122 nM, respectively.
On the same counts, the results for `CN1C(=N)N[C@](C)(c2sc3c(-c4ccc(-n5cccn5)cc4F)nccc3c2Cl)CS1(=O)=O` [Example 116] are 31.4 nM and 110 nM.
Taken in the same sequence, the figures for `CN1C(=N)N[C@](C)(c2sc(-c3ccc(N4CCOCC4)nc3)cc2Cl)CS1(=O)=O` [Example 66] were 5900 nM and 1800 nM.
Taken in the same sequence, the figures for `CN1C(=N)N[C@](C)(c2sc3c(-c4ccc(-n5nccn5)cc4)cccc3c2F)CS1(=O)=O` [Example 92] were 1660 nM and 1660 nM.
Consider `CN1C(=N)N[C@](C)(c2sc3c(-c4ccc(-c5nccs5)cc4)cccc3c2F)CS1(=O)=O` [Example 91], for which the Ki in assay [1] was 797 nM; on human autoBACE-2 it was 1350 nM.
For the compound `CN1C(=N)N[C@](C)(c2sc(-c3ccc(-c4ncco4)cc3)cc2Cl)CS1(=O)=O` [Example 69], the Ki in assay [1] is 4230 nM; at human autoBACE-2, 337 nM.
As to `CN1C(=N)N[C@](C)(c2sc(-c3ccnc(-n4ccnc4)c3)cc2F)CS1(=O)=O` [Example 76], the inhibition constant Ki in assay [1] is 112 nM; on human autoBACE-2, 52 nM.
Taken in the same sequence, the figures for `CN1C(=N)N[C@](C)(c2sc3c(-c4ccc(-n5ccnn5)cc4)nccc3c2Cl)CS1(=O)=O` [Example 104] were 86.1 nM and 36 nM.
Take `CN1C(=N)N[C@](C)(c2sc3c(-c4ccc(-n5cccn5)nc4)cccc3c2F)CS1(=O)=O` [Example 87]: the Ki is 10 nM in assay [1] and 31 nM at human autoBACE-2.
On the same counts, the results for `CN1C(=N)N[C@](C)(c2sc(-c3cccc(-c4ccno4)c3)cc2Cl)CS1(=O)=O` [Example 13] are 6.5 nM and 2.4 nM.
Regarding `CN1C(=N)N[C@](C)(c2sc(-c3cc(-c4nnco4)ccc3F)cc2F)CS1(=O)=O` [Example 32], the results for the Ki (in assay [1]; at human autoBACE-2) were 1.1 nM and 3.9 nM, respectively.
Take `CN1C(=N)N[C@](C)(c2sc(-c3cc(F)cc(-c4nnco4)c3)cc2F)CS1(=O)=O` [Example 29]: the inhibition constant (Ki) in assay [1] was 1.2 nM; on human autoBACE-2 it was 1.3 nM.
`CN1C(=N)N[C@](C)(c2sc(-c3cccc(-n4nccn4)c3)cc2Cl)CS1(=O)=O` [Example 63]: the Ki in assay [1] was 30.3 nM; at human autoBACE-2, 4.7 nM.
With `CN1C(=N)N[C@](C)(c2sc(-c3cc(-c4nnco4)ncc3F)cc2F)CS1(=O)=O` [Example 59], the Ki in assay [1] is 107 nM; at human autoBACE-2, 92 nM.
`CN1C(=N)N[C@](C)(c2sc3c(-c4cnc(C5CC5)nc4)nccc3c2Cl)CS1(=O)=O` [Example 78]: the Ki was 162 nM in assay [1] and 23 nM on human autoBACE-2.
As to `CN1C(=N)N[C@](C)(c2sc(-c3cccc(-c4nc(C5CC5)no4)c3)cc2F)CS1(=O)=O` [Example 40], the inhibition constant (Ki) is 623 nM in assay [1] and 9.5 nM at human autoBACE-2.
In the case of `CN1C(=N)N[C@](C)(c2sc3c(-c4ccc(-c5cncs5)cc4F)nccc3c2Cl)CS1(=O)=O` [Example 113], the Ki is 105 nM in assay [1] and 252 nM on human autoBACE-2.
Take `CN1C(=N)N[C@](C)(c2sc(-c3ccc(F)c(-c4nnco4)c3)cc2F)CS1(=O)=O` [Example 34]: the figures for the Ki (in assay [1]; on human autoBACE-2) were 6.7 nM and 11 nM, respectively.
On to `Cc1nsc(C2CCN(c3nccc4c(Cl)c([C@]5(C)CS(=O)(=O)N(C)C(=N)N5)sc34)CC2)n1` [Example 122], for which the Ki in assay [1] is 885 nM; at human autoBACE-2, 408 nM.
Regarding `CN1C(=N)N[C@](C)(c2sc3c(-c4ccc(-c5cnn(C)c5)cc4F)nccc3c2Cl)CS1(=O)=O` [Example 112], the inhibitory constant (Ki) in assay [1] was 291 nM; on human autoBACE-2, 218 nM.
With `Cc1noc(-c2cccc(-c3cc(Cl)c([C@]4(C)CS(=O)(=O)N(C)C(=N)N4)s3)c2)n1` [Example 37], the Ki in assay [1] was 25.9 nM; on human autoBACE-2, 4.6 nM.
Taken in the same sequence, the figures for `CN1C(=N)N[C@](C)(c2sc3c(-c4ccc(-n5nccn5)cc4)nccc3c2Cl)CS1(=O)=O` [Example 99] were 224 nM and 855 nM.
Take `COc1cnn(-c2ccc(-c3nccc4c(Cl)c([C@]5(C)CS(=O)(=O)N(C)C(=N)N5)sc34)c(F)c2)c1` [Example 115]: the Ki in assay [1] was 17.7 nM; on human autoBACE-2, 267 nM.
On the same counts, the results for `Cc1occc1-c1ccc(-c2nccc3c(Cl)c([C@]4(C)CS(=O)(=O)N(C)C(=N)N4)sc23)c(F)c1` [Example 109] are 525 nM and 87 nM.
Taken in the same sequence, the figures for `CN1C(=N)N[C@](C)(c2sc3c(-c4ccc(-n5cccn5)cc4)cccc3c2F)CS1(=O)=O` [Example 89] were 37 nM and 68 nM.
Taken in the same sequence, the figures for `CN1C(=N)N[C@](C)(c2sc3c(-c4ccc(-c5ccncc5)cc4)cccc3c2F)CS1(=O)=O` [Example 84] were 351 nM and 764 nM.
As to `CN1C(=N)N[C@](C)(c2sc(-c3cncc(-c4cnco4)c3)cc2F)CS1(=O)=O` [Example 21], the results for the Ki (in assay [1]; at human autoBACE-2) were 18.4 nM and 16 nM, respectively.
For the compound `CN1C(=N)N[C@](C)(c2sc(-c3cccc(-n4cccn4)c3)cc2Cl)CS1(=O)=O` [Example 60], the values for the Ki (in assay [1]; on human autoBACE-2) were 57 nM and 1.6 nM, respectively.
Regarding `CN1C(=N)N[C@](C)(c2sc(-c3cncc(-c4nnco4)c3)cc2F)CS1(=O)=O` [Example 3], the figures for the Ki (in assay [1]; on human autoBACE-2) were 7.5 nM and 25.9 nM, respectively.
As to `CN1C(=N)N[C@](C)(c2sc3c(-c4ccc(-c5ccnn5C)cc4F)nccc3c2Cl)CS1(=O)=O` [Example 111], the inhibition constant Ki was 197 nM in assay [1] and 27 nM at human autoBACE-2.
As for `Cc1cn(-c2cc(-c3cc(F)c([C@]4(C)CS(=O)(=O)N(C)C(=N)N4)s3)ccn2)cn1` [Example 72], the Ki in assay [1] was 67.2 nM; at human autoBACE-2, 26 nM.
As to `CN1C(=N)N[C@](C)(c2sc3c(-c4ccc(-c5nccn5C)cc4)nccc3c2Cl)CS1(=O)=O` [Example 105], the inhibition constant Ki in assay [1] is 1640 nM; on human autoBACE-2, 86 nM.
